Tests used:
GPIbα [1] = assay: Inhibition of 125I LJ-Ib1 antibody binding to platelets, no modulator
Description: (§1) To assess the inhibitory activity of p5E extracts on antibody binding, a concentration of LJ-Ib1 was first selected which would, in the absence of p5E extracts, provide half-maximal binding.
(§2) LJ-Ib1 was iodinated by the procedure of Fraker, D.J. et al., Biochem. Biophys. Res. Commun., 80, 849-857 (1978) using I^125 from Amersham, Arlington Heights, IL and Iodogen (Pierce Chemical Co., Rockford, IL). Washed platelets were prepared by the albumin density gradient technique of Walsh, et al., Br. J. Haematol., 36, 281-298 (1977), and used at a count of 1 x 10^8 /ml.
The p5E polypeptide extract was purified according to the procedure of Example 4 including final purification of the urea-solubilized inclusion body preparation by dialysis against 6.0M guanidine and urea solutions followed by Q-Sepharose® chromatography.
To evaluate binding, platelets were incubated for 30 minutes at 22-25° C. with LJ-Ib1 (10 μg/ml) and concentrations of purified p5E protein (.002-10.0 μMolar) as indicated in FIGS. 3A and 3B. Inhibition was plotted in the presence of 2 μg/ml botrocetin, Sigma Chemical Co., St. Louis, MO, (FIG. 3B) and in the absence of botrocetin (FIG. 3A).
Less than 5 percent of the ^125 I label bound to the platelets was contributed by labelled substances other than LJ-Ib1 as determined by binding competition experiments in the presence of a 100 fold excess of unlabelled LJ-Ib1. Background labelling was subtracted from data points. Binding of ^125 I LJ-Ib1 was expressed as a percentage of a control assay lacking recombinant polypeptides. […] It is known that botrocetin induces in circulating multisubunit von Willebrand factor and single subunits thereof a conformational change which enhances or permits binding to the GPIbα receptor. […] Structural similarity is therefore indicated.
The interaction the mutant molecules with GPIbα was evaluated using an assay (Sugimoto, M. et al., Biochemistry, 30, 5202-5209 (1991)) based on inhibition of binding of antibody LJ-Ib1 to platelets. The corresponding IC50 values (concentration of fragment required to inhibit 50% of antibody binding) are presented in Table 2 (no modulator) and Table 3 (botrocetin added).
The interaction of rvWF^441-733 with GPIbα was measured by the ability of rvWF^441-733 to inhibit the binding of an anti-GPIbα monoclonal antibody, LJ-IB1, to platelets. This assay, previously described in detail, (Sugimoto, M. et al., Biochemistry, 30, 5202-5208 (1991)) offers the advantage that the binding of LJ-Ib1, unlike that of native vWF, is not dependent on the presence of modulators, like ristocetin or botrocetin. Binding by vWF^441-733 to GPIbα is thought to block the region of GPIbα to which LJ-Ib1 binds.

NMC-4 antibody = assay: Immunoblotting with conformation-dependent monoclonal antibody NMC-4; type: binding, murine
Description: Polypeptides expressed from p7E, p7D and pJD18 were further characterized by immunoblotting ("Western blotting") according to a standard procedure Burnett et al., A. Anal. Biochem., 112, 195-203, (1981) and as recommended by reagent suppliers. Samples containing approximately 10 μg of protein from the urea-solubilized and dialyzed inclusion body extracts of host cells (containing p7E, p7D and pJD18 plasmids) were subjected to electrophoresis on 10% polyacrylamide gels, Laemli, U.K. Nature, 227, 680-685 (1970), in the presence of 2% concentration of sodium dodecyl sulfate.
The proteins were blotted and immobilized onto a nitrocellulose sheet (Schleicher and Schuell, Keene, NH) and the pattern was then visualized using immunoreactivity.
The secondary antibody (^125 I-rabbit anti-mouse IgG), labelled by the method of Fraker, P.J. et al. Biochem. Biophys. Res. Commun., 80, 849-857 (1978)), was incubated for 60 minutes at 25° C. on the nitrocellulose sheet. After rinsing, the sheet was developed by autoradiography.
NMC-4 however, has as its epitope the domain of the von Willebrand factor subunit which contains the glycoprotein Ib binding site. […] Id. at 17903. […]

GPIbα [2] = assay: Inhibition of 125I LJ-Ib1 antibody binding to platelets in the presence of botrocetin; conditions: botrocetin 2 μg/ml; LJ-Ib1 10 μg/ml; purified p5E protein; read-out: 50% inhibition of 125I LJ-Ib1 binding to platelets
Description: as §1
as §2, with “/ml. […]” for “/ml.”
Less than 5 percent of the ^125 I label bound to the platelets was contributed by labelled substances other than LJ-Ib1 as determined by binding competition experiments in the presence of a 100 fold excess of unlabelled LJ-Ib1. […] Binding of ^125 I LJ-Ib1 was expressed as a percentage of a control assay lacking recombinant polypeptides. […]
The interaction the mutant molecules with GPIbα was evaluated using an assay (Sugimoto, M. et al., Biochemistry, 30, 5202-5209 (1991)) based on inhibition of binding of antibody LJ-Ib1 to platelets. […]
The interaction of rvWF^441-733 with GPIbα was measured by the ability of rvWF^441-733 to inhibit the binding of an anti-GPIbα monoclonal antibody, LJ-IB1, to platelets. […]

[3] = oxidized form (Cys509-Cys695 bond), absence of modulators, range of results over n experiments, read-out: (Oxidized) IC50
[4] = reduced/alkylated form, absence of modulators, range of results over n experiments, read-out: (Reduced/alkylated) IC

“rvWF^441-696: C-terminal deletion fragment of the p5E vWF polypeptide terminating at residue 696” was tested, and the IC50 (GPIbα [1]; [3]) was 1000 to 1300 nM, the “Ability to inhibit LJ-Ib1 binding to platelets / affinity for GPIbα relative to rvWF^441-733” value (GPIbα [1]; reduced and alkylated form, Table 2) was “greatly reduced ability to inhibit LJ-Ib1 binding to platelets” and the IC50 (GPIbα [1]; [4]) was greater than 4000 nM.

In the case of “rvWF^441-700: C-terminal deletion fragment of the p5E vWF polypeptide terminating at residue 700”, the IC50 (GPIbα [1]; [3]) is reported as 2000 to 3100 nM and the IC50 (GPIbα [1]; [4]) is reported as 500 nM.

In the case of “rvWF^441-704: C-terminal deletion fragment of the p5E vWF polypeptide terminating at residue 704”, the IC50 (GPIbα [1]; [3]) is reported as 2600 to 3200 nM and the IC50 (GPIbα [1]; [4]) is reported as 30 to 40 nM.

In the case of “rvWF^441-733: recombinant vWF residue 441-733 fragment from p5E; Cys 459, 462, 464, 471, 474 replaced by Gly; Cys509-Cys695 retained; oxidized or reduced/alkylated”, the “Increase in binding affinity for NMC-4 compared to cysteine-free p7E species” value (NMC-4 antibody; nonreducing conditions, single chain species, immunoblot) is reported as roughly 120 fold, the “Affinity for NMC-4 after electrophoresis under reducing conditions” value (NMC-4 antibody; reducing conditions, 100 mM DTT) is reported as “remarkably decreased affinity for NMC-4” and the “IC50 of reduced and alkylated form relative to oxidized form” value (GPIbα [1]; absence of modulator, FIG. 3A) is reported as “more than ten fold lower”. The IC50 (GPIbα [1]; [3]) was 3000 to 5000 nM, the IC50 (GPIbα [1]; [4]) was 70 to 300 nM and the IC50 (GPIbα [1]; without botrocetin, LJ-Ib1 10 μg/ml, purified p5E protein, read-out: Fifty percent inhibition of 125I LJ-Ib1 binding to platelets) was 10000 nM. The IC50 (GPIbα [2]) was less than 100 nM.
